Laboratory results as given in BindingDB's records for doi:10.1124/jpet.106.102897 (University of Kansas, 2006).
Where “and” joins values, the source holds several entries; their conditions need not be identical. Equal entries are not always repeated.

Assays:
Histamine H1 receptor [1] = target: Histamine H1 receptor (Homo sapiens, UniProt P35367)
Histamine H1 receptor [2] = target: Histamine H1 receptor (Cavia porcellus, UniProt P31389)
Chain of Histamine H1 receptor (Cavia porcellus, UniProt P31389) (P31389 whole entry): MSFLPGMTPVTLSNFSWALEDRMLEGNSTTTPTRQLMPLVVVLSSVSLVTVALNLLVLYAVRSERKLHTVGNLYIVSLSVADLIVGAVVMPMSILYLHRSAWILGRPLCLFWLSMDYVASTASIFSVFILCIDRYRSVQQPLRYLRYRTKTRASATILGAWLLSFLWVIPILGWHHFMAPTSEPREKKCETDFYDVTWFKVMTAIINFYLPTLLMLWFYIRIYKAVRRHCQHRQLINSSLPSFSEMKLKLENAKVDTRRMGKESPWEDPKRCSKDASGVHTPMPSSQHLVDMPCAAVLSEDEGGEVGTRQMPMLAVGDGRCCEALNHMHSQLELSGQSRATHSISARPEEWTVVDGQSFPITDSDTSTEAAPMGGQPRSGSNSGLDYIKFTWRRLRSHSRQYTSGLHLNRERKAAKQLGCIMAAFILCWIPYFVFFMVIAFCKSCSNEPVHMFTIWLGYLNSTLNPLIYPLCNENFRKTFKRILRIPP

Chain of Histamine H1 receptor (Homo sapiens, UniProt P35367) (P35367 whole entry): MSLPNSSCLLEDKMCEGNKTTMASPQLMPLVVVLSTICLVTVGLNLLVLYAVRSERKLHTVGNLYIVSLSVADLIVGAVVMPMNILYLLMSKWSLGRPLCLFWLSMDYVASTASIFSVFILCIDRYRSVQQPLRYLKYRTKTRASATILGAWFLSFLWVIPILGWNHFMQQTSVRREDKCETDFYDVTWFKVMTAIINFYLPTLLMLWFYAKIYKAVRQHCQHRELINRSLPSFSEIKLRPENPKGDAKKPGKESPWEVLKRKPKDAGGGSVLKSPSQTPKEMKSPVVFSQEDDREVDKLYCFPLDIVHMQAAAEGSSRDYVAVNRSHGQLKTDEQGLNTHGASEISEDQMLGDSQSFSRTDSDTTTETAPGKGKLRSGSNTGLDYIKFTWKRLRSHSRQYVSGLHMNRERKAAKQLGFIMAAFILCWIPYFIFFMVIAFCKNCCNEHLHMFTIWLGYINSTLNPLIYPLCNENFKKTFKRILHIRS

SMILES	Ki (Histamine H1 receptor [1])	Ki (Histamine H1 receptor [2])
N=C(NCCCc1c[nH]cn1)NC(=O)CCCCc1ccccc1 [UR-AK22]	2900 nM	440 nM
NC(=NCCCc1cnc[nH]1)NC(=O)CC1CCCCC1 [UR-AK62]	7000 nM	4700 nM
CC(C(=O)NC(N)=NCCCc1cnc[nH]1)c1ccccc1 (configuration not stated) [UR-AK68]	3500 nM	–

Next, values leading:

Ki (Histamine H1 receptor [1])	Ki (Histamine H1 receptor [2])	SMILES
–	2600 nM and 1600 nM	CC(CC(=O)NC(N)=NCCCc1cnc[nH]1)C1CCCCC1 (configuration not stated) [UR-AK24]
6000 nM and 2300 nM	11000 nM	CC(C(=O)NC(N)=NCCCc1cnc[nH]1)C1CCCCC1 (configuration not stated) [UR-AK59]
990 nM	350 nM	N=C(NCCCc1c[nH]cn1)NC(=O)CCCC1CCCCC1 [UR-AK64]
14000 nM	2200 nM	N=C(NCCCc1c[nH]cn1)NC(=O)CCCc1ccccc1 [UR-AK67]
